Test results taken from patent US11945822B2, “Pyrazolo-triazine and/or pyrazolo-pxrimidine derivatives as selective inhibitor of cyclin dependent kinase” (QURIENT CO., LTD., priority 2018, dated 2024).
Read-outs that look alike come from different tables or passages of the source.

Key:
MV4-11 = assay: Cellular MV4-11 viability assay (CellTiter-Glo, 72 hours); format: cell-based; details: Homo sapiens
Protocol: (§1) All cell lines were routinely tested for mycoplasma.
(§2) The effect of the CDK7 inhibitor to inhibit the growth of target cancer cells was evaluated through the 72 hours time period of viability assay. Briefly, the candidate cell line ware plated in 96 well plate at the following density of cells respectively. […] DMSO solvent without compound served as a control and final DMSO concentration less than 0.1%. After 72 hours of incubation at 37° C., 5% CO2 incubator, cells were analyzed for the viability using the CellTiter-Glo Luminescent Cell Viability Assay (Promega, Cat #G7570). All viability assays were performed in duplicate and Luminescence was read using an Envision (Perkin Elmer, USA). Data was analyzed using XLfit software.

CDK2/Cyclin A = target: T1, CDK2/Cyclin A (Homo sapiens, UniProt P24941); assay: Enzymatic assay for CDK2 (FRET based LANCE Ultra kinase assay); format: biochemical
T1 construct: purchased Invitrogen PV6290
Protocol: (§3) Enzymatic Binding Assay Protocol for CDK1, CDK2, CDK5 and CDK7
(§4) Inhibition activity of the respective compound on CDK kinase under Km value of ATP was tested in FRET based The LANCE® Ultra kinase assay (Perkin Elmer), which uses a ULight™-labeled peptide substrate and an appropriate Europium-labeled anti-phospho-antibody. Test compounds were made with DMSO solutions, and then 4-fold serial dilutions for 8 doses were prepared using automated liquid handler (POD810, LABCYTE) and 80 nL/well of diluted compound solutions were added into the 384-well plates (Greiner, Cat #784075). And then 68 nM of ULight-MBP peptide (Perkin Elmer, Cat #TRF0109-M) and 5 ul/well of ATP (Sigma, Cat #A7699) were added to the plate. After 1 min centrifugation at 1000 rpm, Purified CDKs/Cyclin complex were added following concentrations respectively. 24 uM for CDK1/Cyclin B (Invitrogen, Cat #PR4768C), 22 uM for CDK2/Cyclin A (Invitrogen, Cat #PV6290), 10 uM for CDK5/p25 (Invitrogen, Cat #PR8543B) and […] for CDK7/Cyclin H/MNAT1 (Invitrogen, Cat #PR6749B) were added to the each corresponding plate for CDK1, CDK2, CDK5 and CDK7. Incubate at 23° C. for 60 min and then Eu-labeled anti-phospho-Myelin Basic Protein (PE, Cat #TRF0201-M) and EDTA (Invitrogen, Cat #15575038) mixture in Lance Detection Buffer (Perkin Elmer, Cat #CR97100) was added in each well. After additional incubation at 23° C. for 60 min, test articles were measured the fluorescence using Envision leader (Perkin Elmer, USA) [Laser as excitation light; […] as the first and the second emission filter]. Data was analyzed using XL Fit software.

H460 = assay: Cellular H460 viability assay (CellTiter-Glo, 72 hours); format: cell-based; details: Homo sapiens, NCI-H460
Protocol: as §1, §2

CDK5/p25 = target: T2, CDK5/p25 (Homo sapiens, UniProt Q00535); assay: Enzymatic assay for CDK5 (FRET based LANCE Ultra kinase assay); format: biochemical
T2 construct: purchased Invitrogen PR8543B
Protocol: as §3, §4

CDK1/Cyclin B = target: T3, CDK1/Cyclin B (Homo sapiens, UniProt P06493); assay: Enzymatic assay for CDK1 (FRET based LANCE Ultra kinase assay); format: biochemical
T3 construct: purchased Invitrogen PR4768C
Protocol: as §3, §4

HCT116 = assay: Cellular HCT116 viability assay (CellTiter-Glo, 72 hours); format: cell-based; details: Homo sapiens, HCT-116
Protocol: as §1, §2

CDK7/Cyclin H/MNAT1 = target: T4, CDK7/Cyclin H/MNAT1 (Homo sapiens, UniProt P50613); assay: Enzymatic assay for CDK7 (FRET based LANCE Ultra kinase assay); format: biochemical
T4 construct: purchased Invitrogen PR6749B
Protocol: as §3
Inhibition activity of the respective compound on CDK kinase under Km value of ATP was tested in FRET based The LANCE® Ultra kinase assay (Perkin Elmer), which uses a ULight™-labeled peptide substrate and an appropriate Europium-labeled anti-phospho-antibody. […] After 1 min centrifugation at 1000 rpm, Purified CDKs/Cyclin complex were added following concentrations respectively. […] Data was analyzed using XL Fit software.

[1] = read-out: CDK2 enzymatic activity (IC50 range)
[2] = read-out: CDK5 enzymatic activity (IC50 range)
[3] = read-out: CDK1 enzymatic activity (IC50 range)
[4] = read-out: CDK7 enzymatic activity (IC50 range)

T4 sequence (P50613 whole entry): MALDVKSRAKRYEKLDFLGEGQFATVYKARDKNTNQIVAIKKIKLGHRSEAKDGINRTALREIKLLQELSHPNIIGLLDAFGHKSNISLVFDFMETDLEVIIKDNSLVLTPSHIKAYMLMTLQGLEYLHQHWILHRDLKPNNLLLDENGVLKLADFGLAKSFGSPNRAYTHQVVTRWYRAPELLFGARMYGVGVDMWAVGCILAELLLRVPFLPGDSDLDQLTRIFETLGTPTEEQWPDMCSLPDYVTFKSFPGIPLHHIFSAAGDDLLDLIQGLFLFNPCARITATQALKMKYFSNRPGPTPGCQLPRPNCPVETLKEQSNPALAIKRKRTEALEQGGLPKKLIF
T4 sequence (P51946 whole entry partner): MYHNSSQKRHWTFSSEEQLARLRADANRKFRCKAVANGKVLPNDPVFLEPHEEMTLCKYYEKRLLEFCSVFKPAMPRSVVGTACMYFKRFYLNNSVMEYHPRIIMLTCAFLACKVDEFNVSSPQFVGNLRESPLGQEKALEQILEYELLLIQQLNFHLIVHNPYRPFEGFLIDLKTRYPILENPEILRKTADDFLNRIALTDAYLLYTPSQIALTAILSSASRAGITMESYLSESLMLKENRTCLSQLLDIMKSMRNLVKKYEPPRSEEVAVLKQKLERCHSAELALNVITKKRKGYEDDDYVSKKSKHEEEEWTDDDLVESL
T4 sequence (P51948 whole entry partner): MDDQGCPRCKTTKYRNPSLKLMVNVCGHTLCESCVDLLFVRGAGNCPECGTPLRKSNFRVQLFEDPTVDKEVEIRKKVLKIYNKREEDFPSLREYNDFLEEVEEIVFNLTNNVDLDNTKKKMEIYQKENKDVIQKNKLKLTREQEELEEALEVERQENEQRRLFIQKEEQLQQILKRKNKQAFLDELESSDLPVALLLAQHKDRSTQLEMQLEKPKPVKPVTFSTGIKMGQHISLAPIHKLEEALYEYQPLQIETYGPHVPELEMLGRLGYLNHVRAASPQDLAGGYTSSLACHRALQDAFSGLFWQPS
T3 sequence (P06493 whole entry): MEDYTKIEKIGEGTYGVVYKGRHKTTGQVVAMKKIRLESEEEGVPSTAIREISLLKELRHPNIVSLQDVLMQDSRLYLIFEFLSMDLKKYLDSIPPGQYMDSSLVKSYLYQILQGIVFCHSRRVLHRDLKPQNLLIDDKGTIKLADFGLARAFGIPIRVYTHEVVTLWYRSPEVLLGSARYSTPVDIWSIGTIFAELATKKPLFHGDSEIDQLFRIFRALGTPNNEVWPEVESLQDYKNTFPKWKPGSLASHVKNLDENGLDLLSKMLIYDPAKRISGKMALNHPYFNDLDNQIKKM
T3 sequence (P14635 whole entry partner): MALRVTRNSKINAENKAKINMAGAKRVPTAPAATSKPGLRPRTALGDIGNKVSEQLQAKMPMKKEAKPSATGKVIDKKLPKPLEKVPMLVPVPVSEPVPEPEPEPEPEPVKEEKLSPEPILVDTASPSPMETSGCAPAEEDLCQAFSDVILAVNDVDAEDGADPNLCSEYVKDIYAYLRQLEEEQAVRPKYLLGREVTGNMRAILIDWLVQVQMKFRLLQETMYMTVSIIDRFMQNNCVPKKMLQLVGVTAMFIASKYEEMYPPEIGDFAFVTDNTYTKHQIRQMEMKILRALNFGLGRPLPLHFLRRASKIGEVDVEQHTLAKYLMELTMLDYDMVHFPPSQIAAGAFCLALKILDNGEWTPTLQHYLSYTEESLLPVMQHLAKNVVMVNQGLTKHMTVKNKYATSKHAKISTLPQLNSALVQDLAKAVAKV
T2 sequence (Q00535 whole entry): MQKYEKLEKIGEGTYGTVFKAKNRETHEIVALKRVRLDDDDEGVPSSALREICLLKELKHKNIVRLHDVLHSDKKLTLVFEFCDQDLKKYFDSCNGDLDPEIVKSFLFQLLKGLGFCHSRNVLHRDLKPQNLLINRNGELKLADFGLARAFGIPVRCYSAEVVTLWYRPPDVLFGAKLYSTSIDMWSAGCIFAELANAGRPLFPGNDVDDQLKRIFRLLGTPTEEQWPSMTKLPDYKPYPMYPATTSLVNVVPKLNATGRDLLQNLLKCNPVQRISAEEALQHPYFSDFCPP
T2 sequence (Q15078 99-307 partner limits assumed): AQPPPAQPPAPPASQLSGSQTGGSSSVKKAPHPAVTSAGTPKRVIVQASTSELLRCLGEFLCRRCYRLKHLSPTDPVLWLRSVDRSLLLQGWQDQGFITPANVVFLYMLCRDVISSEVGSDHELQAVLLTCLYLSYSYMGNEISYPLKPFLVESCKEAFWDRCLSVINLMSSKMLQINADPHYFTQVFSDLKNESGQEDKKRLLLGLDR

SMILES	IC50 (MV4-11) [nM]	IC50 (CDK2/Cyclin A; [1]) [nM]	IC50 (H460) [nM]	IC50 (CDK5/p25; [2]) [nM]	IC50 (CDK1/Cyclin B; [3]) [nM]	IC50 (HCT116) [nM]	CDK1/CDK7: Selectivity of CDK7 inhibition over CDK1 inhibition (CDK7/Cyclin H/MNAT1; CDK7 over CDK1)	CDK2/CDK7: Selectivity of CDK7 inhibition over CDK2 inhibition (CDK7/Cyclin H/MNAT1; CDK7 over CDK2)	CDK5/CDK7: Selectivity of CDK7 inhibition over CDK5 inhibition (CDK7/Cyclin H/MNAT1; CDK7 over CDK5)	IC50 (CDK7/Cyclin H/MNAT1; [4]) [nM]	IC50 (CDK2/Cyclin A; read-out: CDK2 enzymatic activity (IC50 activity range)) [nM]	IC50 (CDK5/p25; read-out: CDK5 enzymatic activity (IC50 activity range)) [nM]	IC50 (CDK1/Cyclin B; read-out: CDK1 enzymatic activity (IC50 activity range)) [nM]	CDK1/CDK7: Selectivity of CDK7 inhibition over CDK1 inhibition (CDK7/Cyclin H/MNAT1; CDK1/CDK7)	IC50 (CDK7/Cyclin H/MNAT1; read-out: CDK7 enzymatic activity (IC50 activity range)) [nM]	CDK2/CDK7: Selectivity of CDK7 inhibition over CDK2 inhibition (CDK7/Cyclin H/MNAT1; CDK2/CDK7)	CDK5/CDK7: Selectivity of CDK7 inhibition over CDK5 inhibition (CDK7/Cyclin H/MNAT1; CDK5/CDK7)
CC1CCN(c2cnn(-c3cccc(Cl)c3CNc3nc(N4CCC(N)CC4)nc4c(C(C)C)cnn34)c2)CC1 [Compound 204]	< 1000	> 1000	< 1000	> 1000	> 1000	< 1000	A (A=greater than 200 fold)	A (A=greater than 200 fold)	A (A=greater than 200 fold)	< 100	–	–	–	–	–	–	–
CC(C)c1cnn2c(NCc3c(Cl)cccc3-n3cc(N4CCOCC4)cn3)nc(N3CCC(N)CC3)nc12 [Compound 203]	< 1000	> 1000	< 1000	> 1000	> 1000	< 1000	A (A=greater than 200 fold)	A (A=greater than 200 fold)	A (A=greater than 200 fold)	< 100	–	–	–	–	–	–	–
CC(C)c1cnn2c(NCc3ccccc3-n3cc4cc(C(=O)NC5CC5)ccc4n3)nc(N3CCC(N)CC3)nc12 [Compound 161]	< 1000	100 to 1000	< 1000	100 to 1000	100 to 1000	< 1000	A (A=greater than 200 fold)	B (B=less than 200 fold, but greater than 20 fold)	B (B=less than 200 fold, but greater than 20 fold)	< 100	–	–	–	–	–	–	–
CC(=O)NC1CCN(c2nc(NCc3c(Cl)cccc3-n3ccc(C(C)(C)O)n3)n3ncc(C(C)C)c3n2)CC1 [Compound 199]	1000 to 10000	> 1000	< 1000	> 1000	> 1000	< 1000	A (A=greater than 200 fold)	A (A=greater than 200 fold)	A (A=greater than 200 fold)	< 100	–	–	–	–	–	–	–
CC(C)c1cnn2c(NCc3ccccc3-n3ccc(C(C)(C)O)n3)nc(NCC3(O)CCNCC3)nc12 [Compound 229]	1000 to 10000	100 to 1000	1000 to 10000	100 to 1000	> 1000	1000 to 10000	B (B=less than 200 fold, but greater than 20 fold)	C (C=less than 20 fold)	C (C=less than 20 fold)	< 100	–	–	–	–	–	–	–
CC(C)c1cnn2c(NCc3ccccc3-n3cc(N4CCN(C)CC4)cn3)nc(N3CCC(N)CC3)nc12 [Compound 179]	< 1000	100 to 1000	< 1000	100 to 1000	100 to 1000	< 1000	B (B=less than 200 fold, but greater than 20 fold)	B (B=less than 200 fold, but greater than 20 fold)	B (B=less than 200 fold, but greater than 20 fold)	< 100	–	–	–	–	–	–	–
CC(C)c1cnn2c(NCc3ccccc3-c3ccc4ccccc4n3)cc(NCC3(O)CCNCC3)nc12 [Compound 208]	< 1000	< 100	< 1000	100 to 1000	100 to 1000	< 1000	B (B=less than 200 fold, but greater than 20 fold)	C (C=less than 20 fold)	B (B=less than 200 fold, but greater than 20 fold)	< 100	–	–	–	–	–	–	–
CC(C)c1cnn2c(NCc3ccccc3-n3cc(C(=O)NC4CCOCC4)cn3)nc(N3CCC(N)CC3)nc12 [Compound 155]	< 1000	100 to 1000	< 1000	< 100	100 to 1000	< 1000	A (A=greater than 200 fold)	B (B=less than 200 fold, but greater than 20 fold)	B (B=less than 200 fold, but greater than 20 fold)	< 100	–	–	–	–	–	–	–

The next lines start with results.

IC50 (MV4-11) [nM]	IC50 (CDK2/Cyclin A; [1]) [nM]	IC50 (H460) [nM]	IC50 (CDK5/p25; [2]) [nM]	IC50 (CDK1/Cyclin B; [3]) [nM]	IC50 (HCT116) [nM]	CDK1/CDK7: Selectivity of CDK7 inhibition over CDK1 inhibition (CDK7/Cyclin H/MNAT1; CDK7 over CDK1)	CDK2/CDK7: Selectivity of CDK7 inhibition over CDK2 inhibition (CDK7/Cyclin H/MNAT1; CDK7 over CDK2)	CDK5/CDK7: Selectivity of CDK7 inhibition over CDK5 inhibition (CDK7/Cyclin H/MNAT1; CDK7 over CDK5)	IC50 (CDK7/Cyclin H/MNAT1; [4]) [nM]	IC50 (CDK2/Cyclin A; read-out: CDK2 enzymatic activity (IC50 activity range)) [nM]	IC50 (CDK5/p25; read-out: CDK5 enzymatic activity (IC50 activity range)) [nM]	IC50 (CDK1/Cyclin B; read-out: CDK1 enzymatic activity (IC50 activity range)) [nM]	CDK1/CDK7: Selectivity of CDK7 inhibition over CDK1 inhibition (CDK7/Cyclin H/MNAT1; CDK1/CDK7)	IC50 (CDK7/Cyclin H/MNAT1; read-out: CDK7 enzymatic activity (IC50 activity range)) [nM]	SMILES	CDK2/CDK7: Selectivity of CDK7 inhibition over CDK2 inhibition (CDK7/Cyclin H/MNAT1; CDK2/CDK7)	CDK5/CDK7: Selectivity of CDK7 inhibition over CDK5 inhibition (CDK7/Cyclin H/MNAT1; CDK5/CDK7)
< 1000	> 1000	< 1000	> 1000	> 1000	< 1000	A (A=greater than 200 fold)	A (A=greater than 200 fold)	A (A=greater than 200 fold)	< 100	–	–	–	–	–	CC(C)c1cnn2c(NCc3ccccc3-n3ccc(C(C)(C)O)n3)nc(N3CCC(CN)CC3)nc12 [Compound 221]	–	–
< 1000	–	< 1000	–	–	< 1000	–	–	–	–	100 to 1000	100 to 1000	> 1000	A (A=greater than 200 fold)	< 100	CC(C)c1cnn2c(NCc3c(Cl)cccc3Cl)nc(N3CCC(N)CC3)nc12 [Compound 257]	B (B=less than 200 fold, but greater than 20 fold)	B (B=less than 200 fold, but greater than 20 fold)
1000 to 10000	> 1000	1000 to 10000	> 1000	> 1000	1000 to 10000	A (A=greater than 200 fold)	A (A=greater than 200 fold)	A (A=greater than 200 fold)	< 100	–	–	–	–	–	CC(C)c1cnn2c(NCc3c(Cl)cccc3C(C)(C)O)nc(N3CCC(N)CC3)nc12 [Compound 239]	–	–
